Measurements as given in US7320863B2 (Albert Einstein College of Medicine of Yeshiva University, priority 1996, dated 2008).

What was measured:
[1] = biological target: T1, rat sodium/iodide symporter (Rattus norvegicus, UniProt Q63008)
T1 sequence (Q63008 1-618): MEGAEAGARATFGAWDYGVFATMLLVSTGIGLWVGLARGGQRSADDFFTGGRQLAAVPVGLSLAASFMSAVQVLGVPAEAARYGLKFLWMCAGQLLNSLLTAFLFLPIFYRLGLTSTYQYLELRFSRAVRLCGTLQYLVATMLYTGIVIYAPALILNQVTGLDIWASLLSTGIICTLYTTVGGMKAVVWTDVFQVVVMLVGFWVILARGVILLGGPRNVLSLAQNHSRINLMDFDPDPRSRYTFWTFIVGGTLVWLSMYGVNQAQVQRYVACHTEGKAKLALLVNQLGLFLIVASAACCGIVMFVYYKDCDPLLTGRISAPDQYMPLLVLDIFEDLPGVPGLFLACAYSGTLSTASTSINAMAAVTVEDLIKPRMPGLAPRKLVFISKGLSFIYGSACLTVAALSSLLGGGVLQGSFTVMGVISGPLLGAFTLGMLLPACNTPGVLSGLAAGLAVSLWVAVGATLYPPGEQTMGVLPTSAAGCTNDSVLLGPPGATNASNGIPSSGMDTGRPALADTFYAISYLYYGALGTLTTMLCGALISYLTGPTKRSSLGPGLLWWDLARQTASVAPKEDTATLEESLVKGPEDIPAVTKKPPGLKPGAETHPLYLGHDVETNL
Protocol: Transcripts were injected into oocytes and oocytes were assayed for perchlorate-sensitive Na^+/I^− symport activity as described in Weiss, et al., supra.
Control assays were carried out in oocytes microinjected with water (lane-1). Na^+-dependence was ascertained by using choline in place of Na^+, and perchlorate sensitivity was tested by conducting assays in the presence of both Na+ and perchlorate.

[2] = biological target: T1, rat sodium/iodide symporter; test: Iodide accumulation in COS cells transfected with sodium/iodide symporter cDNA; type: cell-based; parameters: Beginning with Met at position 1, a long open reading frame codes for a protein of 618 amino acids; expressed in transfected cells; host or cells: Xenopus laevis oocytes microinjected with cRNA transcribed in vitro (T7 RNA polymerase) from the cDNA clone in pSPORT; details: COS cells transfected with symporter cDNA clone, assayed 48 h after transfection
Protocol: In FIG. 1A oocytes were microinjected with water (lane 1), 50 ng mRNA from FRTL-5 cells (lane 2), or approximately 20 ng cRNA transcripts made in vitro from pools containing the indicated number of cDNA clones (lanes 3-7, numbers without parentheses at bottom of FIG. 1A). […] Inset: Double reciprocal plot. […] Each point represents the average of triplicate determinations+/−SE.
A directional cDNA library was prepared in the PSPORT (BRL) vector from poly A^+ RNA isolated from FRTL-5 cells. cRNAs were synthesized in vitro using T7 RNA polymerase in the presence of m^7 GpppG from pools of cDNA clones. Transcripts were injected into oocytes and oocytes were assayed for perchlorate-sensitive Na^+/I^− symport activity as described in Weiss, et al., supra.

Row | generated iodide concentration gradient ([1]; 50 μM iodide in transport solution, functional volume 0.5 μl/oocyte) [fold] | SMILES | Na+/I- symport activity in the presence of perchlorate ([1]; assayed in the presence of both Na+ and perchlorate, 45 min) | perchlorate sensitivity of Na+/I- symport activity [2]
1 | > 30 | I [iodide] | – | –
2 | – | [O-][Cl+3]([O-])([O-])O [perchlorate] | virtually indistinguishable from background | perchlorate-sensitive
